In ChEMBL document CHEMBL1154549, “Three new triterpenoids from Peganum nigellastrum” (J Nat Prod, 2000):

Molecular target: DNA topoisomerase 2-alpha (Homo sapiens, UniProt P11388)
Test: Inhibition of human topoisomerase 2

DNA topoisomerase 2-alpha, sequence (P11388 whole entry): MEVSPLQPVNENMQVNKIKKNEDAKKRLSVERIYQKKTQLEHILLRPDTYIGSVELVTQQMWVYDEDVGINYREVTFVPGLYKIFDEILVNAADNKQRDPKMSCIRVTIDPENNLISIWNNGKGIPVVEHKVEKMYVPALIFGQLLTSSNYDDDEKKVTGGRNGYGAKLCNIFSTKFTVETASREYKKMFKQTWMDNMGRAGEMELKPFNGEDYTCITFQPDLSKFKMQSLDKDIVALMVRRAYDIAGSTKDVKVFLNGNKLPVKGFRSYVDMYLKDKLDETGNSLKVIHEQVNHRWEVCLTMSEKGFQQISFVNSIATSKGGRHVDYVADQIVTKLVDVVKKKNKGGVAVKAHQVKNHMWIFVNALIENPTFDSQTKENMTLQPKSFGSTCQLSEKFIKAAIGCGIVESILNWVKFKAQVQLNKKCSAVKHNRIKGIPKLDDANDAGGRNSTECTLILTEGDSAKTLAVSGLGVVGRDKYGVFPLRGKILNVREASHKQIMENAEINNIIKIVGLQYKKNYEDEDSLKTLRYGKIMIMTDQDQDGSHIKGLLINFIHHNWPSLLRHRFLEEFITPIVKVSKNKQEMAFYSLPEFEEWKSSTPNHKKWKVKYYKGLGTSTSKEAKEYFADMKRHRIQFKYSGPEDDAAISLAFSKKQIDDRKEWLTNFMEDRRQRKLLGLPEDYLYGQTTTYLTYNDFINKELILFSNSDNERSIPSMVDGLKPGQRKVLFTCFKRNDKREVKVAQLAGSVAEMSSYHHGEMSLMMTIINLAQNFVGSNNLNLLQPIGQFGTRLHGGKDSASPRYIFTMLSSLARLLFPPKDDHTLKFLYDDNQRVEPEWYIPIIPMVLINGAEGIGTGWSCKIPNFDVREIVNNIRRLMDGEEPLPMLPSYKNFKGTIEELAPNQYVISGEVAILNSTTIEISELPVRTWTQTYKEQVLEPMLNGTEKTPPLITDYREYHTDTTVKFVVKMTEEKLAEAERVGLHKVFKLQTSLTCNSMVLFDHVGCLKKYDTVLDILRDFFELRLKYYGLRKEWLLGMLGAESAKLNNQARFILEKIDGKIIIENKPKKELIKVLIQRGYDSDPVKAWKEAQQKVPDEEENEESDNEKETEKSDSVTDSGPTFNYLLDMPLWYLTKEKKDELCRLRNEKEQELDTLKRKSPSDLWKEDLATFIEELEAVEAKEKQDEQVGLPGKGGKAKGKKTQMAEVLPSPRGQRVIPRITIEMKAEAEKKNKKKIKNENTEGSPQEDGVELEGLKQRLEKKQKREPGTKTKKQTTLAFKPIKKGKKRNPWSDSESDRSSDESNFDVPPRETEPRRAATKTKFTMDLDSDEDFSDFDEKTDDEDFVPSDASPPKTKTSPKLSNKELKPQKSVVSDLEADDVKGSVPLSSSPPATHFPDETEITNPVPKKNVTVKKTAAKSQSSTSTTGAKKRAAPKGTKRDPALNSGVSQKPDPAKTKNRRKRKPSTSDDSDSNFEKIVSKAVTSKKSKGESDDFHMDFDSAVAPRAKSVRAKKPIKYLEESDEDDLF

Row | SMILES | IC50 [µM]
1 | C=C(C)[C@@H]1CC[C@]2(C(=O)OC)CC[C@]3(CO)[C@H](CC[C@@H]4[C@@]5(C)CC[C@@H](O)C(C)(C)[C@@H]5CC[C@]43C)[C@@H]12 | 8.9
2 | C[C@H]([C@H](C)N1CC(=O)NC(=O)C1)N1CC(=O)NC(=O)C1 [ICRF-193] | 13.9
